The values that follow come from BindingDB's records for PubMed 11303056 (Kissei Pharmaceutical, 2001).

Usually Ki stands for the equilibrium dissociation constant of an inhibitor or competing ligand from its target.

For assay [1], the target named is Beta-3 adrenergic receptor (Homo sapiens, UniProt P13945).
Assay [2] has as its target Beta-2 adrenergic receptor (Homo sapiens, UniProt P07550).

Sequence of Beta-2 adrenergic receptor (P07550 whole entry): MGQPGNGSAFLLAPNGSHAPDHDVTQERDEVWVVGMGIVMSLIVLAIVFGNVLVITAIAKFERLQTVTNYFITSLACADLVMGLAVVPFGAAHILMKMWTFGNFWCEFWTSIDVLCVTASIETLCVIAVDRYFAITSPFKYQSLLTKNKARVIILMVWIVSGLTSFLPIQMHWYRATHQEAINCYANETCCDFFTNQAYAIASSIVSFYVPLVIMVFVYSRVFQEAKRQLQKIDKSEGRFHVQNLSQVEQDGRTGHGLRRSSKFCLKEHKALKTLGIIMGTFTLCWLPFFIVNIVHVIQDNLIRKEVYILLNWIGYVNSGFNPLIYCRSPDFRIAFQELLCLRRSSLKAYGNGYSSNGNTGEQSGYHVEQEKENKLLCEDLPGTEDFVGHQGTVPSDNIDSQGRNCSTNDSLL
Sequence of Beta-3 adrenergic receptor (P13945 whole entry): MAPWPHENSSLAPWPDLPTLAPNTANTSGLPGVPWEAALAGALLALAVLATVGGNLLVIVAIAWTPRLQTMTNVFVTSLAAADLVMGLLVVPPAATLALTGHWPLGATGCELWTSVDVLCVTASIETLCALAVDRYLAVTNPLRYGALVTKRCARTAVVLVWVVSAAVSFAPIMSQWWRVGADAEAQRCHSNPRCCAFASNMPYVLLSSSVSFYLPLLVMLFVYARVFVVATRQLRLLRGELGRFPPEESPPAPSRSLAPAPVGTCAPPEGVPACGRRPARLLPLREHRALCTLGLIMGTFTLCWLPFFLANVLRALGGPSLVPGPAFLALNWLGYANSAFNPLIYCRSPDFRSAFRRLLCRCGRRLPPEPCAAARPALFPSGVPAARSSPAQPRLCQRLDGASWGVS

On to `CN(C)C(=O)COc1ccc2c(c1)C[C@@H](NC[C@H](O)c1ccc(O)c(CCO)c1)CC2` [KUR-1246], for which the values for the Ki in assay [1] and in assay [2] were > 10000 nM and 25.7 nM, respectively.
